Assays:
MRSA ATCC 43300 = assay: Adherent MRSA quantification (CFU plating); assay type: cell-based, Staphylococcus aureus; conditions: 0.1 μM 5-FU, 24 h
Protocol: To quantify the amount of adherent bacteria, 2 – 3 × 10^5 CFU/ml MRSA were grown for 24 h in the presence of different 5-FU concentrations. After incubation under static conditions at 37°C, the plate was washed twice with PBS. Adherent bacteria were removed with 100 μl PBS and appropriate dilutions were plated on Mueller-Hinton agar (Becton Dickinson AG, Allschwil, Switzerland) plates overnight at 37°C. Three independent experiments were performed, each performed in triplicate, and the mean values were calculated. Dimethyl sulfoxide (DMSO) was used as a control.
Figure 4. Bioactivity of 5-FU against MRSA ATCC 43300. (A) Quorum sensing-associated AI-2 activity of MRSA 43300 grown for 3 h with different 5-FU concentrations. (B) Effect of different 5-FU concentrations on MRSA 43300 growth. (C) Interference with biofilm formation. (D) Effect on adherent MRSA 43300. Data points represent three biological replicates expressed as mean ± SD (**P < 0.01; ***P < 0.001; ****P < 0.0001).

E. coli = E. coli quorum sensing / AI-2 activity in supernatant; assay type: cell-based, Escherichia coli; conditions: Supplementary Figure S3
Protocol: The test strain E. coli RP437 was grown overnight in LB. Its optical density was measured on a Novaspec II photometer (Pharmacia, Freiburg, Germany) and the culture was diluted to a final OD600 of 0.1 the next morning. The bacteria were challenged with test compounds for 3 h, and then AI-2 activity in the culture supernatant was determined. Specifically, 90 μl of the AI-2 reporter strain V. harveyi (MM32), grown overnight in LM medium and then prediluted 1:500 in AB-medium containing 30 μg/ml kanamycin, was added to 10 μl of E. coli supernatant (10% v/v) in black-bottomed Fluotrac 200 96-well plates (Greiner Bio-One, Frickenhausen, Germany), which were shaken at 200 rpm, at 30°C. The AI-2 induced bioluminescence of MM32 was measured after 5 h. […]
Supplementary Figure 3 | Effect of hit candidates on Escherichia coli. […] AI-2-secreting E. coli (XL10-Gold) was grown for 3 h and AI-2 activity in the supernatant was quantified. […] Optical density (OD600) was measured after 24 h as a measure of cell growth. […] Then, planktonic cell growth (OD600) was measured and biofilm formation was quantified by means of crystal violet staining. (d) AI-2-secreting E. coli (RP437) was grown for 3 h in the presence of different compounds (10 µM), and then AI-2 activity in the supernatant was quantified. Optical density (OD600) was measured after 24 h.

HEK-293AI2 cells = assay type: cell-based, human; conditions: human, 5 µM
Protocol: To monitor viable cells with active metabolism, we employed a fast resazurin assay. […] To calculate the relative cell viability, the fluorescence of DMSO-treated cells was set to 100%.
Figure 2. Cell-based primary screen for AI-2 biosynthesis inhibitors. (A) Detailed assay protocol of the primary screen using engineered mammalian cells to identify inhibitors of quorum sensing. […] Aliquots of 10 μl of culture supernatants were transferred to black-bottomed assay plates and mixed with 40 μl of V. harveyi MM32 (AI-2 biosensor). AI-2-induced bioluminescence was measured 4 h later and normalized against the controls. In a secondary screen, the dose-response relationships of hit compounds are analyzed. To simultaneously assess effects on cell viability, compound-treated cells were supplemented with PrestoBlue and incubated for 1 h prior to resorufin fluorescence quantification. (B) Z’-evaluation of the AI-2 inhibitor assay. […] Bioactivity and viability are calculated as percentages, based on the positive control value (taken as 100%) and negative control value (taken as 0%). […] Data points in (C) represent means of biological duplicates.

SMILES: O=c1[nH]cc(F)c(=O)[nH]1 [5-Fluorouracil]
- Number of adherent MRSA (MRSA ATCC 43300): reduced the number of adherent MRSA
- Effect on E. coli quorum sensing (E. coli): interfered with E. coli quorum sensing
- Viability of Ctrl (%) (HEK-293AI2 cells): 1.53%

— article PMC8287944, “5-Fluorouracil blocks quorum-sensing of biofilm-embedded methicillin-resistant Staphylococcus aureus in mice” (Nucleic Acids Research, 2021)
